“And” between values parts separate entries of the source, which are not always exact repeats. Identical values can stand only once. The source made the active and inactive calls.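 The calls were made as follows: active = compounds giving half or more protection of infected cells from virus-caused growth loss, again on retest; inactive = the rest.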 Where a SMILES comes first, the peptide text is derived from it. Bridges are numbered along the chain shown (N, C = ends). [ ]: non-standard residue; d: D form. The star is where a group is joined. ξ: configuration not given here. Phe(4-NO2) = N[CH](Cc1ccc([N+](=O)[O-])cc1)C(=O)O; Cbz = O=C(OCc1ccccc1)*; ξD = NC(CC(=O)O)C(=O)O; Boc = CC(C)(C)OC(=O)*; Aib = CC(C)(N)C(=O)O; OBn = c1ccc(CO*)cc1
Tested on: CEM cells HIV-1 protection, formazan growth assay
Assay: NCI AIDS Antiviral Assay
Settings: for IC50: measured here: growth of uninfected CEM cells
How it was run: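 Steps: treat uninfected and HIV-1-infected human CEM cells at five drug levels; quantify growth by soluble formazan; retest any compound reaching 50% protection; classify actives from the retest.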

Row | SMILES | EC50 [µM] | IC50 | outcome
1 | CN1c2ccccc2S(=O)(=O)n2c(COc3ccccc3)nnc21 | > 200 | > 200 µM | –
2 | CSc1nc(C#N)c(N)n1C | > 200 | > 200 µM | –
3 | COc1ccc(C2=Nn3c(nc4sc5c(c4c3=O)CCCC5)SC2)cc1 | > 200 | > 200 µM | –
4 | COc1ccc(/C=C2/C(=O)N(C(=O)c3ccccc3O)N=C2C)cc1OC | > 70.8 | 0.145 µM | –
5 | COC(=O)CCC(NC(=O)OC(C)(C)C)C(=O)NC(Cc1ccc([N+](=O)[O-])cc1)C(=O)NC(CCC(=O)OC)C(=O)OC (centres undefined) (Boc-Glu(OMe)-[Phe(4-NO2)]-Glu(OMe)-OMe; configuration not given here) | > 100 | 47.9 µM | –
6 | N#Cc1c(-c2ccccc2)/c(=C\O)c(=O)n2c1nc1ccccc12 | > 200 | 32.4 µM | –
7 | CC(C)OP(=O)(OC(C)C)C(C)(C)O | > 200 | > 200 µM | –
8 | Oc1ccc2c(c1)-c1c(c3ccccc3n1CCN1CCOCC1)CC2 | > 200 | 32.4 µM | –
9 | CCOC(=O)c1cc2cc([N+](=O)[O-])ccc2oc1=O | > 105 | > 105 µM | –
10 | COC(=O)[C@@H](NC(=O)N(CCC#N)CCNc1ccccc1)C(C)C | > 200 | > 200 µM | –
11 | CC(C)CNC12CN3CN(CN(C3)C1)C2 | > 1200 | > 1200 µM | –
12 | CC(C)C1OCC(CO)CO1 (centres undefined) | > 200 | > 200 µM | –
13 | CN(C)P(CCPc1ccccc1)N(C)C (centres undefined) | > 977 | > 977 µM | –
14 | N=C(N)SSC(=N)N | 70.8 | > 100 µM | –
15 | Cc1cccc2c1CCC21OC(=O)c2c1cc(F)c1ccccc21 (centres undefined) | > 39.8 | 14.8 µM | –
16 | COc1ccc(/C(=N/O)c2ccccc2-c2nc3ccccc3c(=O)n2-c2ccc(S(=O)(=O)Nc3ncccn3)cc2)cc1C | > 200 | 49 µM | –
17 | O=C(CNC1=NCCN1)Nc1ccc(NC(=O)c2ccc(C(=O)Nc3ccc(NC(=O)CNC4=NCCN4)cc3)cc2)cc1 | 24 | > 200 µM | –
18 | CNS(=O)(=O)NN(C)S(=O)(=O)c1ccc(Br)cc1 | > 132 | > 132 µM | –
19 | CC(C)OC(=S)SSC(=S)NCCNC(=S)SSC(=S)OC(C)C | > 200 | 9.77 µM | –
20 | NC1=NN(c2ccccc2)C(=O)C1C(=O)C(=O)Nc1ccc(Cl)c(Cl)c1 (centres undefined) | > 331 | 234 µM | –
21 | CC(C)c1cccc(C(C)C)c1NC(=S)Nc1ccccc1 | – | – | inactive
22 | CCOC(=O)c1c(N2CCCC2)[nH]c(=O)c(C(c2ccco2)c2c(O)c(C(=O)OCC)c(N3CCCC3)[nH]c2=O)c1O | > 200 | 117 µM | –

Row | SMILES | EC50 [µM] | IC50 | outcome
23 | CCOC(=O)CN1C(=O)c2ccc(NC(=O)C(=O)O)cc2S1(=O)=O | > 200 | > 200 µM | –
24 | C=CCC(CCC(CC=C)C(=O)O)C(=O)O (centres undefined) | > 1100 | > 1100 µM | –
25 | O=C(CCCC(=O)NNC(=O)Nc1ccc(N=Nc2ccccc2)cc1)NNC(=O)Nc1ccc(N=Nc2ccccc2)cc1 | > 200 | > 200 µM | –
26 | C[C@@]12[C@H]3CC[C@@H]1[C@H](O)C(=O)N2CC3 | > 200 | > 200 µM | –
27 | Cc1c(Cl)ccc2c1NC(=O)C2(O)C(C(=O)c1ccccc1)c1ccccc1 (centres undefined) | > 66.1 | > 66.1 µM | –
28 | O=C1CCC[C@]2(CCC[C@@H](O)C2)N1 | > 200 | > 200 µM | –
29 | COC1=CC(=O)[C@@]2(OC)C(=O)c3c(cc4cc(O)c(C(O)OC)c(C)c4c3O)C(=O)[C@@]2(O)C1OC1OC(C)C(OC)C(OC)C1OC (some centres undefined) | > 93.3 | 64.6 µM | –
30 | CSc1nc2c(nc(C)c(=O)n2C2OCC(OC(C)=O)C(OC(C)=O)C2OC(C)=O)c(=O)[nH]1 (centres undefined) | > 513 | > 513 µM | –
31 | N#C/C(=C\c1ccc(O)c(O)c1)C(=O)NCCCNC(=O)/C(C#N)=C/c1ccc(O)c(O)c1 | > 200 | 66.1 µM | –
32 | CCCCCCCCCCCCC(=O)N1CCOCC1 | > 200 | 52.5 µM | –
33 | CCOC(=O)C(C)S(=O)(=O)O (centres undefined) | > 200 | > 200 µM | –
34 | CCN(CC)CC(C)C1NS(=O)(=O)c2ccccc21 (centres undefined) | > 200 | > 200 µM | –
35 | O=C1/C(=C\c2ccc(O)cc2)CCC/C1=C/c1ccc(Cl)c(Cl)c1 | > 200 | 1.12 µM | –
36 | N#Cc1nc(-c2cccs2)oc1N | > 200 | > 200 µM | –
37 | O=[N+]([O-])/C(C(Cl)=C(Cl)Cl)=C(/Nc1ccccc1)Sc1ccccc1 | > 200 | 23.4 µM | –
38 | Nc1c(S(=O)(=O)O)cc2cc(S(=O)(=O)O)ccc2c1N=Nc1ccc(-c2ccc(N=Nc3c(N)c(S(=O)(=O)O)cc4cc(S(=O)(=O)O)ccc34)c(S(=O)(=O)O)c2)cc1 | – | – | active
39 | C[N+]1(CCCl)CCc2cccc([N+](=O)[O-])c2C1 (centres undefined) | > 200 | 97.7 µM | –
40 | CCC12CCCN(CCBr)C1c1c(n(C)c3ccccc13)C(C(=O)OC)C2 (centres undefined) | > 27.5 | 13.5 µM | –
41 | O=C(O)CCCCCCCCCCCCCCC(=O)O | > 18.2 | > 18.2 µM | –
42 | S=c1[nH]nc(COc2ccc(Cl)cc2)n1-c1ccccc1 | > 200 | 30.9 µM | –
43 | O=[N+]([O-])c1ccc(Cl)cc1C1ON=C(c2ccccc2)N1C12CC3CC(CC(C3)C1)C2 (centres undefined) | > 100 | > 100 µM | –
44 | COc1cc(CNc2ccc(SC)cc2)cc(OC)c1OC | > 100 | 4.68 µM and 4.79 µM | –

Row | SMILES | EC50 [µM] | IC50 | outcome
45 | CCC1=CC2CC(C(=O)OC)C1(N(C)C)C2=O (centres undefined) | – | – | inactive
46 | CCCCc1ccc(N2C(=O)c3cc([N+](=O)[O-])cnc3S2(=O)=O)cc1 | > 2 | 0.479 µM | –
47 | CCc1ccc(/C(C)=N/NC(N)=S)cc1 | – | – | inactive
48 | Cc1ccc(/C=C(\C#N)c2ccccc2)cc1 | > 229 | > 229 µM | –
49 | C[S+](C)C1(c2ccccc2)C(=O)c2ccccc2C1=O | > 575 | > 575 µM | –
50 | C[N+](C)(C)CC1CCCc2ccccc2C1=O (centres undefined) | – | – | inactive
51 | CC(=O)N1CC(C)(C)c2c(C)c(O)c(C)c(C)c21 | > 200 | 178 µM | –
52 | COC(=O)/C=c1\sc2n(c1=O)CCCCN=2 | > 417 | 240 µM | –
53 | S=c1[nH]nc(C23CC4CC(CC(C4)C2)C3)n1-c1ccc(Cl)cc1 | > 200 | 23.4 µM | –
54 | Nc1ncnc2c1ncn2C1C=CC(CP(=O)(O)O)C1 (centres undefined) | > 200 | > 200 µM | –
55 | NC(=O)CN1CCN(CCCN2c3ccccc3Sc3ccc(Cl)cc32)CC1 | > 200 | 30.9 µM | –
56 | CC1OC(OC2C(Oc3cc(O)c4c(=O)cc(-c5ccc(O)cc5)oc4c3)OC(CO)C(O)C2O)C(O)C(O)C1O (centres undefined) | > 427 | > 427 µM | –
57 | CC(=O)/C=C\C(=O)NNS(=O)(=O)c1ccc(C)cc1 | > 891 | 832 µM | –
58 | O=C(CSc1nnc(-c2ccc(N=Cc3ccc(Cl)cc3)cc2)o1)Nc1ccccc1[N+](=O)[O-] | > 20.4 | > 20.4 µM | –
59 | COc1ccc(C(=CCC[C@H]2CC[C@@]3(C)[C@@H](CC[C@@H]4[C@@H]3CC[C@]3(C)[C@@H](C(C)CCCC(C)C)CC[C@@H]43)C2)c2ccc(OC)c(C(=O)O)c2)cc1C(=O)O (some centres undefined) | > 200 | > 200 µM | –
60 | CCCCc1ccc(Nc2nc(=S)c3[nH]cnc3[nH]2)cc1 | > 200 | 44.7 µM | –
61 | O/N=C1\CSc2ccccc2C1 | > 200 | > 200 µM | –
62 | Cc1nc(N)c(N2CCN([N+](=O)[O-])CC2)c(=O)[nH]1 | – | – | inactive
63 | OCc1ncccc1O | > 200 | > 200 µM | –
64 | O=C1CC(c2ccccc2)NC(=O)N1CCN1CCOCC1 (centres undefined) | > 200 | > 200 µM | –
65 | O=C1CCN2CCCC1C2 (centres undefined) | > 1410 | 1290 µM | –
66 | NCCSSc1ccccc1C(=O)O | > 200 | > 200 µM | –

Row | SMILES | EC50 [µM] | IC50 | outcome
67 | C=CCC(C(=O)OCC)C1NCCc2c1[nH]c1ccccc21 (centres undefined) | > 45.7 | > 45.7 µM | –
68 | O=C(/C=C/c1ccc(F)c(F)c1)OCCc1ccccc1 | > 200 | 38.9 µM | –
69 | NC(=O)NNCc1c(-c2ccccc2)no[n+]1[O-] | > 200 | > 200 µM | –
70 | N#CC1C(=O)NC(=O)C1=O (centres undefined) | > 1820 | > 1820 µM | –
71 | Cc1cc(OC(F)(F)c2nc3ccccc3o2)cc(C)c1C | 25.1 | 26.9 µM | –
72 | CN(C)c1ccc(C(=CC=C2c3ccccc3C(=O)c3ccccc32)c2ccc(N(C)C)cc2)cc1 | > 3.09 | > 3.09 µM | –
73 | Cc1cc2nc3c(C#N)c(C)c(CCCl)c(Cl)n3c2cc1C | > 200 | 3.31 µM | –
74 | Cc1cc[n+]2c(c1)-c1cc(C)cc[n+]1CC2 | > 200 | 162 µM | –
75 | CNC(=O)C1CCCCNC(=O)CCC(NC(=O)OCc2ccccc2)C(=O)N1 (stereo not drawn) (Cbz-Glu-Lys-NHMe; lactam 1-2; configuration not given here) | > 200 | > 200 µM | –
76 | Cn1nc2ccc([N+](=O)[O-])cc2[n+]1[O-] | > 200 | 155 µM | –
77 | S=c1nc(C(c2ccccc2)c2ccccc2)[nH][nH]1 | > 135 | > 135 µM | –
78 | NC1=CN2c3ccccc3N(CC(=O)O)C2C=C1 (centres undefined) | > 200 | > 200 µM | –
79 | CC(=O)OC1CC2C(C)(C)CCCC2(C)C2C(=O)C(O)=C(C(C)C)C(=O)C12 (centres undefined) | > 200 | 2.82 µM | –
80 | C/C=C/C1(C)/C(=N\O)C(C)(CCC)C(=O)N1O (centres undefined) | 25.1 | 1050 µM | –
81 | Cc1ccc(N=C2N=C(N3CC(C)OC(C)C3)c3ccccc32)cc1 (centres undefined) | > 107 | 26.3 µM | –
82 | CC(C)(C)OC(=O)NC(CC(=O)OCc1ccccc1)C(=O)NC(C)(C)C(N)=O (centres undefined) (Boc-[ξD](OBn)-[Aib]-NH2) | > 200 | > 200 µM | –
83 | O=C1CCC(c2ccccc2)(C2CCN(Cc3ccc(F)cc3)CC2)C(=O)N1 (centres undefined) | > 200 | 123 µM | –
84 | CCN(CC)CCOC(=O)C(Cc1cccc2ccccc12)CC1CCCO1 (centres undefined) | > 200 | > 100 µM | –
85 | O=S1(=O)C(c2ccc(F)cc2)=C(O)c2cc3ccccc3nc21 | – | – | inactive
86 | CCOC(=O)Cc1nc2c(N)ncnc2n1C1OC(COC(C)=O)C(OC(C)=O)C1OC(C)=O (centres undefined) | > 200 | > 200 µM | –
87 | O=C1OC(=O)c2cc(S(=O)(=O)c3ccc4c(c3)C(=O)OC4=O)ccc21 | > 200 | > 200 µM | –
88 | COC(=O)CCCC=C(c1cc(Cl)c(OC)c(C(=O)OC)c1)c1cc(Cl)c(OC)c(C(=O)OC)c1 | 1.62 | 21.4 µM | –

Reference: PubChem BioAssay AID179 (DTP/NCI, 2004)
